Test results from BigSolDB 2.1.

With `CC#C[C@]1(O)CC[C@H]2[C@@H]3CCC4=CC(=O)CCC4=C3[C@@H](c3ccc(N(C)C)cc3)C[C@@]21C` the solubility (mole fraction) (in THF, 273.15 K) was 5.16e-05, the solubility (mole fraction) (in THF, 278.15 K) was 6e-05 and the solubility (mole fraction) (in THF, 283.15 K) was 6.95e-05. It also gave a solubility (mole fraction) (in THF, 288.15 K) of 8.05e-05, a solubility (mole fraction) (in THF, 293.15 K) of 9.3e-05 and a solubility (mole fraction) (in THF, 298.15 K) of 0.000107. It also gave a solubility (mole fraction) (in THF, 303.15 K) of 0.000123, a solubility (mole fraction) (in THF, 308.15 K) of 0.000142 and a solubility (mole fraction) (in THF, 313.15 K) of 0.000163. The solubility (mole fraction) (in THF, 318.15 K) was 0.000188, the solubility (mole fraction) (in acetone, 273.15 K) was 0.000149 and the solubility (mole fraction) (in acetone, 278.15 K) was 0.000184. It also gave a solubility (mole fraction) (in acetone, 283.15 K) of 0.000228, a solubility (mole fraction) (in acetone, 288.15 K) of 0.000281 and a solubility (mole fraction) (in acetone, 293.15 K) of 0.000345. It also gave a solubility (mole fraction) (in acetone, 298.15 K) of 0.000422, a solubility (mole fraction) (in acetone, 303.15 K) of 0.000516 and a solubility (mole fraction) (in acetone, 308.15 K) of 0.000628. The solubility (mole fraction) (in acetone, 313.15 K) was 0.000762, the solubility (mole fraction) (in acetone, 318.15 K) was 0.000922 and the solubility (mole fraction) (in ethanol, 273.15 K) was 0.000122. It also gave a solubility (mole fraction) (in ethanol, 278.15 K) of 0.000146, a solubility (mole fraction) (in ethanol, 283.15 K) of 0.000174 and a solubility (mole fraction) (in ethanol, 288.15 K) of 0.000206. It also gave a solubility (mole fraction) (in ethanol, 293.15 K) of 0.000244, a solubility (mole fraction) (in ethanol, 298.15 K) of 0.000289 and a solubility (mole fraction) (in ethanol, 303.15 K) of 0.000341. It also gave a solubility (mole fraction) (in ethanol, 308.15 K) of 0.000401, a solubility (mole fraction) (in ethanol, 313.15 K) of 0.000472 and a solubility (mole fraction) (in ethanol, 318.15 K) of 0.000552. The solubility (mole fraction) (in ethyl acetate, 273.15 K) was 0.000103, the solubility (mole fraction) (in ethyl acetate, 278.15 K) was 0.000125 and the solubility (mole fraction) (in ethyl acetate, 283.15 K) was 0.000152. The solubility (mole fraction) (in ethyl acetate, 288.15 K) was 0.000184, the solubility (mole fraction) (in ethyl acetate, 293.15 K) was 0.000223 and the solubility (mole fraction) (in ethyl acetate, 298.15 K) was 0.00027. It also gave a solubility (mole fraction) (in ethyl acetate, 303.15 K) of 0.000325, a solubility (mole fraction) (in ethyl acetate, 308.15 K) of 0.000392 and a solubility (mole fraction) (in ethyl acetate, 313.15 K) of 0.000471. For the same molecule, the solubility (mole fraction) (in ethyl acetate, 318.15 K) was 0.000565, the solubility (mole fraction) (in isopropanol, 273.15 K) was 7.13e-05 and the solubility (mole fraction) (in isopropanol, 278.15 K) was 0.000109. For the same molecule, the solubility (mole fraction) (in isopropanol, 283.15 K) was 0.000164, the solubility (mole fraction) (in isopropanol, 288.15 K) was 0.000244 and the solubility (mole fraction) (in isopropanol, 293.15 K) was 0.000358. The solubility (mole fraction) (in isopropanol, 298.15 K) was 0.000518, the solubility (mole fraction) (in isopropanol, 303.15 K) was 0.00074 and the solubility (mole fraction) (in isopropanol, 308.15 K) was 0.00105. The solubility (mole fraction) (in isopropanol, 313.15 K) was 0.00146, the solubility (mole fraction) (in isopropanol, 318.15 K) was 0.00202 and the solubility (mole fraction) (in methanol, 273.15 K) was 0.000445. For the same molecule, the solubility (mole fraction) (in methanol, 278.15 K) was 0.00058, the solubility (mole fraction) (in methanol, 283.15 K) was 0.000756 and the solubility (mole fraction) (in methanol, 288.15 K) was 0.000982. The solubility (mole fraction) (in methanol, 293.15 K) was 0.00128, the solubility (mole fraction) (in methanol, 298.15 K) was 0.00164 and the solubility (mole fraction) (in methanol, 303.15 K) was 0.0021. It also gave a solubility (mole fraction) (in methanol, 308.15 K) of 0.00266, a solubility (mole fraction) (in methanol, 313.15 K) of 0.00333 and a solubility (mole fraction) (in methanol, 318.15 K) of 0.00414. For the same molecule, the solubility (mole fraction) (in n-butanol, 273.15 K) was 0.000172, the solubility (mole fraction) (in n-butanol, 278.15 K) was 0.000213 and the solubility (mole fraction) (in n-butanol, 283.15 K) was 0.000264. It also gave a solubility (mole fraction) (in n-butanol, 288.15 K) of 0.000332, a solubility (mole fraction) (in n-butanol, 293.15 K) of 0.000412 and a solubility (mole fraction) (in n-butanol, 298.15 K) of 0.000502. It also gave a solubility (mole fraction) (in n-butanol, 303.15 K) of 0.000612, a solubility (mole fraction) (in n-butanol, 308.15 K) of 0.000733 and a solubility (mole fraction) (in n-butanol, 313.15 K) of 0.000875. It also gave a solubility (mole fraction) (in n-butanol, 318.15 K) of 0.00103, a solubility (mole fraction) (in n-propanol, 273.15 K) of 0.000138 and a solubility (mole fraction) (in n-propanol, 278.15 K) of 0.000163. It also gave a solubility (mole fraction) (in n-propanol, 283.15 K) of 0.000192, a solubility (mole fraction) (in n-propanol, 288.15 K) of 0.000226 and a solubility (mole fraction) (in n-propanol, 293.15 K) of 0.000266. For the same molecule, the solubility (mole fraction) (in n-propanol, 298.15 K) was 0.00031, the solubility (mole fraction) (in n-propanol, 303.15 K) was 0.000362 and the solubility (mole fraction) (in n-propanol, 308.15 K) was 0.000428. It also gave a solubility (mole fraction) (in n-propanol, 313.15 K) of 0.000499 and a solubility (mole fraction) (in n-propanol, 318.15 K) of 0.000582.
